Test results taken from the OligoGym collection.
Where “and” joins values, the source holds several entries; their conditions need not be identical. Equal entries are not always repeated. After the bases stand the sugars from the 5' end (letter, count) and the backbone: PS all phosphorothioate, else s phosphorothioate and o phosphodiester by linkage. Methylation of C is not given here. e = 2'-O-(2-methoxyethyl) (MOE); k = constrained ethyl (cEt); d = 2'-deoxy (DNA)

Legend:
[1] = target: SOD1; settings: ASO, HepG2, 5 µM
[2] = target: MALAT1; settings: ASO, A431, 0.005 µM

| Sequence | target mRNA inhibition [1] | target mRNA inhibition [2] |
| --- | --- | --- |
| GTCTGGCAAAATACAGG (sugars e2 k2 d8 k2 e3, PS) | 30% |  |
| GCCGCCTGCTACCTTC (sugars k3 d10 k3, PS) |  | 12% |
| CACTCATATGCAATTC (sugars k3 d10 k3, PS) |  | 37% |
| TCTGCGGTTTCCTCAA (sugars k3 d10 k3, PS) |  | 49% |
| TTAACCAACTTCCCCT (sugars k3 d10 k3, PS) |  | 43% |
| GAGCCAAGCACTCATA (sugars k3 d10 k3, PS) |  | 6% |
| CCCAACACTGAACTAC (sugars k3 d10 k3, PS) |  | 19% |
| CACTCTAAGATTGTAA (sugars k3 d10 k3, PS) |  | 33% |
| AAACCTGGGCTCCCGG (sugars k3 d10 k3, PS) |  | 20% |
| TTATAATAGAGCTACT (sugars k3 d10 k3, PS) |  | 4% |
| CCGTTACGAAAGTCCT (sugars k3 d10 k3, PS) |  | 67% and 56% |
| AAGCTACAACAAGTAA (sugars k3 d10 k3, PS) |  | 10% |
| GTATAGTTTACCACCT (sugars k3 d10 k3, PS) |  | 9% |
| CACAGCGGTACACTCC (sugars k3 d10 k3, PS) |  | 40% |
| CAGGCAAATTAATGGC (sugars k3 d10 k3, PS) |  | 23% |
| CAGACCTTCTGAACCG (sugars k3 d10 k3, PS) |  | 10% |
| CTGTTATGTTCACCTG (sugars k3 d10 k3, PS) |  | 56% and 77% |
| TACCCCAACTAAACAT (sugars k3 d10 k3, PS) |  | 18% |
| AGATTAGTAGTCAAAG (sugars k3 d10 k3, PS) |  | -12% |
| TCTCAATTTGGCTATC (sugars k3 d10 k3, PS) |  | 29% |
| CCGCCTTTGTGAGGGA (sugars k3 d10 k3, PS) |  | 14% |
| CCGAAGACACAGAGAC (sugars k3 d10 k3, PS) |  | 2% |

| Sequence | target mRNA inhibition [1] | target mRNA inhibition [2] |
| --- | --- | --- |
| CCAGTCTACAAGTTAC (sugars k3 d10 k3, PS) |  | 50% and 56% |
| ATGCTTATTCCCCAAT (sugars k3 d10 k3, PS) |  | 52% |
| CTATAGTCTGAAGAAT (sugars k3 d10 k3, PS) |  | 22% |
| GGGCTTTACTTTCCAT (sugars k3 d10 k3, PS) |  | 16% |
| ATAACGAAGAGATACC (sugars k3 d10 k3, PS) |  | 6% |
| ACCCCCGGAACTTTTA (sugars k3 d10 k3, PS) |  | 9% |
| TTAAGACCATCCCAAA (sugars k3 d10 k3, PS) |  | 5% |
| GGATGTATATAGTTCA (sugars k3 d10 k3, PS) |  | 30% |
| TCGCCTTCAAATTATT (sugars k3 d10 k3, PS) |  | 35% |
| CTCCGAAGACACAGAG (sugars k3 d10 k3, PS) |  | -3% |
| CTTCCCTATATAAGGT (sugars k3 d10 k3, PS) |  | 10% |
| TACAAACTGCTTACAG (sugars k3 d10 k3, PS) |  | 39% |
| CCTGGTTAGGTATGAG (sugars k3 d10 k3, PS) |  | 19% |
| TTTAAGGTTGCATCTG (sugars k3 d10 k3, PS) |  | 41% |
| CAGGAACAAGTCCTAC (sugars k3 d10 k3, PS) |  | 19% |
| ACTAGCACCTGCAGAG (sugars k3 d10 k3, PS) |  | 23% |
| TTGCCCCAACACTGAA (sugars k3 d10 k3, PS) |  | 7% |
| ATTATCCTGATATTGG (sugars k3 d10 k3, PS) |  | 46% |
| CTGGAATGGCCAGCCT (sugars k3 d10 k3, PS) |  | 15% |
| GGGTTAAGCACTTTTA (sugars k3 d10 k3, PS) |  | 57% |
| TAAATCCCTTTACACC (sugars k3 d10 k3, PS) |  | 12% |
| TTACTGGTTTAAGTTG (sugars k3 d10 k3, PS) |  | 24% |

| Sequence | target mRNA inhibition [1] | target mRNA inhibition [2] |
| --- | --- | --- |
| GAATTCAACTGGAAGC (sugars k3 d10 k3, PS) |  | 7% |
| AAGTATTACTCTAATC (sugars k3 d10 k3, PS) |  | 9% |
| GAGTAACTACCAGCCA (sugars k3 d10 k3, PS) |  | 37% |
| AATCCCCCCCAAGATT (sugars k3 d10 k3, PS) |  | -5% |
| CTCCGTGTGGTTGCCA (sugars k3 d10 k3, PS) |  | 24% |
| CTTAACAGCTTATGGA (sugars k3 d10 k3, PS) |  | 30% |
| CTTCAGACAAGATTCA (sugars k3 d10 k3, PS) |  | 24% |
| AGCCACTCAAATGCCT (sugars k3 d10 k3, PS) |  | 28% |
| TACTGGTTTAAGTTGG (sugars k3 d10 k3, PS) |  | 67% and 77% |
| CGCTTGAGATTTGGGC (sugars k3 d10 k3, PS) |  | 33% |
| ATCACCGGAATTCGAT (sugars k3 d10 k3, PS) |  | 17% |
| TTCATTACCCCAACTA (sugars k3 d10 k3, PS) |  | 42% |
| AGGCAAACGAAACATT (sugars k3 d10 k3, PS) |  | 35% |
| CTCCTGAGATGACTGA (sugars k3 d10 k3, PS) |  | 39% |
| ATACTTGTCTTAGCTT (sugars k3 d10 k3, PS) |  | 60% and 75% and 50% |
| TAGTTGGCATCAAGGC (sugars k3 d10 k3, PS) |  | 72% and 69% |
| TCTCATTTATTTCGGC (sugars k3 d10 k3, PS) |  | 79% and 93% |
| GAGAAACCTACAACAC (sugars k3 d10 k3, PS) |  | 11% |
| CTCATTTATTTCGGCT (sugars k3 d10 k3, PS) |  | 78% and 93% |
| AGCAGTAGGGCTTCTC (sugars k3 d10 k3, PS) |  | 3% |
| TGAGTGGTTTTATCTA (sugars k3 d10 k3, PS) |  | 7% |
| CTCCCAATTAATCTTT (sugars k3 d10 k3, PS) |  | 27% |

| Sequence | target mRNA inhibition [1] | target mRNA inhibition [2] |
| --- | --- | --- |
| CTTCCGCCGCCTCTTA (sugars k3 d10 k3, PS) |  | 9% |
| AAGTGCTCACAAGGCA (sugars k3 d10 k3, PS) |  | -16% |
| CTCCTGACAAATTATA (sugars k3 d10 k3, PS) |  | 17% |
| TGAAGCATACCTTAAC (sugars k3 d10 k3, PS) |  | 31% |
| CTCTAAGATTGTAAGC (sugars k3 d10 k3, PS) |  | 16% |
| TCTGATCTGCGGCCCC (sugars k3 d10 k3, PS) |  | -18% |
| ACCCAGTGGCTCATAT (sugars k3 d10 k3, PS) |  | 16% |
| CTAAGCGAATGGCTTT (sugars k3 d10 k3, PS) |  | 22% |
| CTTACTTGATAATACA (sugars k3 d10 k3, PS) |  | 35% |
| AAATTGCACTCGCTCC (sugars k3 d10 k3, PS) |  | 28% |
| GAATACTCTTCCAAGG (sugars k3 d10 k3, PS) |  | 16% |
| CGAAACTCCCCCATTA (sugars k3 d10 k3, PS) |  | 15% |
| ATCATTGGGAGTTACT (sugars k3 d10 k3, PS) |  | 54% |
| TATCTTCACCACGAAC (sugars k3 d10 k3, PS) |  | 0% |
| GGCCAGACCAACCCCC (sugars k3 d10 k3, PS) |  | 3% |
| ATCGCCTTCAAATTAT (sugars k3 d10 k3, PS) |  | 60% and 76% |
| AAGCCGCCTGCTACCT (sugars k3 d10 k3, PS) |  | -16% |
| TACTTTAAGCCTTCGG (sugars k3 d10 k3, PS) |  | 29% |
| TAGCAGTAACATCTGA (sugars k3 d10 k3, PS) |  | 46% |
| AGTCCCTGAAGGTGTT (sugars k3 d10 k3, PS) |  | 28% |
| CAGTTGCCGCCAGCCC (sugars k3 d10 k3, PS) |  | -3% |
| GCCTTCGGTGCCTTTA (sugars k3 d10 k3, PS) |  | -2% |

| Sequence | target mRNA inhibition [1] | target mRNA inhibition [2] |
| --- | --- | --- |
| CAAGGATGTATATAGT (sugars k3 d10 k3, PS) |  | 0% |
| CACCAAATCGCACTGG (sugars k3 d10 k3, PS) |  | -7% |
| CAGCGGGATCAGAACA (sugars k3 d10 k3, PS) |  | 23% |
| CAACCTCCGTCATGTT (sugars k3 d10 k3, PS) |  | 35% |
| CTGAGAAAACAATACG (sugars k3 d10 k3, PS) |  | 8% |
| TAGAGCTACTTAGCTG (sugars k3 d10 k3, PS) |  | 18% |
| TTGCTCGCTTGCTCCT (sugars k3 d10 k3, PS) |  | 40% |
| AACATATTGCCGACCT (sugars k3 d10 k3, PS) |  | 45% |
| CTATCTGAAACTCTTG (sugars k3 d10 k3, PS) |  | 57% and 34% |
| CGCTCAAATCCTGATC (sugars k3 d10 k3, PS) |  | 23% |
| TATGACACTTTCCTTG (sugars k3 d10 k3, PS) |  | 25% |
| ATGGAGGTATGACATATAAT (sugars e5 d10 e5, PS) |  | 22% and 25% |
| GCCCACAGGAACAAGT (sugars k3 d10 k3, PS) |  | 25% |
| TCTCCAATGGACATCT (sugars k3 d10 k3, PS) |  | 8% |
| TCTACAAGTTACATGT (sugars k3 d10 k3, PS) |  | 23% |
| ACTCGCTTTCCCTGTG (sugars k3 d10 k3, PS) |  | 35% |
| AACAATTACCTAAACC (sugars k3 d10 k3, PS) |  | 16% |
| CTCCCCGCCTGAGCCC (sugars k3 d10 k3, PS) |  | -23% |
| ATACGACTGCTTAAAA (sugars k3 d10 k3, PS) |  | 20% |
| GCTTCCTACTTTTCAG (sugars k3 d10 k3, PS) |  | 44% |
